A short description of this data set: Decarboxylation/stability of cyclic carbonate 11 in deuterated buffer. Format: physicochemical. Conditions: for t50 (decarboxylation of 11 to 12): deuterated buffer/DMSO-d6 95:5, rt. As to the method:
Figure 3 (A) Comparison of ring-opening rate constants (k^O) for the exchange reactions of 2, 3, and 11–18 with 10 (Table 1); (a) deuterated buffer/DMSO-d6 95:5, rt, t50 = <15 min, 84 min, 18 h, and ≫24 h at pD 7.9, 6.7, 5.4, and 4.7, respectively. (B) Dynamic covalent ring opening of CTO 3 and thiol 10 to give product 9. (C) Original kinetic data for the equilibration of 3 with 10 at pD 2.7 in deuterated phosphate buffer/DMSO-d6 9:1. Gold triangles: 3; purple circles: 9; filled diamonds: 10; empty diamonds: homo-disulfide of 10. (D) Dependence of K (filled circles) and rate constants (relative, k at 90% D2O as 1, k^O filled diamonds, k^C empty diamonds) for 3 with 10 at pD 2.7 (estimate) on solvent polarity. (E–G) Fluoride complexes of 1,2-dithiane 1,1-dioxide (E), 1,2-dithiane 1-oxide (F), and 1,2-dithiane (G), calculated with M06-2X/6-311++G** (green: F^–, yellow: S, red: O, gray: C, white: H). (H, I) Chloride complexes of 3 (H) and 1 (I, green: Cl^–, in parentheses: bond length for F^–). (J) Fragmentation of 11 with 10; (b) 10, DMSO-d6, rt.
The strained cyclic carbonate 11 was considered to accelerate CTO opening and further stabilize the opened form (entry 12). However, at pD 7.9, carbonate 11 decarboxylated within 15 min to CTO alkene 12. This degradation decelerated with decreasing pD to afford stable carbonate 11 for at least 1 day at pD 4.7 (Figure 3A). Ring opening of 11 was too fast even at pD 2.7, it proceeded to near completion with a >100× higher rate than 3. Decarboxylated alkene 12 reacted also very fast, the apparently lower rate is the consequence of more favorable ring closure back to 12 due to preorganization by the cis alkene (entry 13). The alternative Michael addition of thiol 10 to alkene 12 was not observed (Figure S12).

For `O=C1O[C@H]2CSS(=O)(=O)C[C@H]2O1` [Compound 11], the “t50 (decarboxylation of 11 to 12)” value (pD 4.7) is on record as > 24 h, the “t50 (decarboxylation of 11 to 12)” value (pD 5.4) stood at 18 h, the “t50 (decarboxylation of 11 to 12)” value (pD 6.7) worked out at 1.4 h and the “t50 (decarboxylation of 11 to 12)” value (pD 7.9) was < 0.25 h. Moreover, the time stable entry (pD 4.7) was “at least 1 day”. Further, under “pD 7.9”, the “time of decarboxylation to CTO alkene 12” value is ≤ 15 min.

The values are drawn from PMC9088311, “Cyclic Thiosulfonates for Thiol-Mediated Uptake: Cascade Exchangers, Transporters, Inhibitors” (JACS Au, 2022).
